In US20240358692A1, “TREATMENT OF SCLERODERMA” (Aisa Pharma, Inc., priority 2023, published 2024):

Test system: participants with SSc-RP
Test: Average severity of weekly RP attacks (VAS 0-10)
Assay type: in vivo, human
Conditions: for Average Severity (0-10) of weekly RP attacks, Median / Average severity of weekly RP attacks, Change from Baseline, Mean / Average severity of weekly RP attacks, Change from Baseline, Median / Average severity of weekly RP attacks, Percent Change from Baseline, Mean / Average severity of weekly RP attacks, Percent Change from Baseline, Median / Average Severity (0-10) of weekly RP attacks, Mean: all attacks
From the text: The absolute change in average severity of weekly RP attacks (VAS 0-10 cm scale) from baseline to the end of each Dosing Period was and will be a secondary outcome variable. The sponsor-developed participant-informed diary will be used to record data. Average severity of weekly RP attacks is defined as the total severity scores of RP attacks divided by total number of RP attacks within the last 7 days of each dosing period. Total severity scores of RP attacks during the last 7 days of screening period divided by the total number of RP attacks will be used as baseline for the analysis of all periods. The variable will be calculated similar to frequency data as before.

[1] = Cilnidipine 10 mg, 1st Baseline RCS subgroup, ITT Part A, last 7 days of dosing period
[2] = Cilnidipine 10 mg, Excluding Outliers, 1st Baseline RCS subgroup, ITT Part A, last 7 days of dosing period
[3] = Cilnidipine 10 mg, ITT Part A, last 7 days of dosing period
[4] = Cilnidipine 10 mg, Excluding Outliers, ITT Part A
[5] = Cilnidipine 10 mg, Excluding Outliers, by Baseline RCS: first subgroup of Table C-8, ITT Part A
[6] = Cilnidipine 10 mg, by Baseline RCS: first subgroup of Table C-7, ITT Part A
[7] = Cilnidipine 10 mg, excluding outliers, ITT Part A
[8] = Cilnidipine 10 mg, excluding outliers, severity 0-10, ITT Part A
[9] = Cilnidipine 10 mg, severity 0-10, ITT Part A
[10] = Cilnidipine 20 mg, 1st Baseline RCS subgroup, ITT Part A, last 7 days of dosing period
[11] = Cilnidipine 20 mg, Excluding Outliers, 1st Baseline RCS subgroup, ITT Part A, last 7 days of dosing period
[12] = Cilnidipine 20 mg, ITT Part A, last 7 days of dosing period
[13] = Cilnidipine 20 mg, Excluding Outliers, ITT Part A
[14] = Cilnidipine 20 mg, Excluding Outliers, by Baseline RCS: first subgroup of Table C-8, ITT Part A
[15] = Cilnidipine 20 mg, by Baseline RCS: first subgroup of Table C-7, ITT Part A
[16] = Cilnidipine 20 mg, excluding outliers, ITT Part A
[17] = Cilnidipine 20 mg, excluding outliers, severity 0-10, ITT Part A
[18] = Cilnidipine 20 mg, severity 0-10, ITT Part A
[19] = Pooled Cilnidipine 10 mg and Cilnidipine 10 mg + Tadalafil 5 mg, 1st Baseline RCS subgroup, ITT Part A, last 7 days of dosing period
[20] = Pooled Cilnidipine 10 mg and Cilnidipine 10 mg + Tadalafil 5 mg, 2nd Baseline RCS subgroup, ITT Part A, last 7 days of dosing period

COCCOC(=O)C1=C(C)NC(C)=C(C(=O)OC/C=C/c2ccccc2)C1c1cccc([N+](=O)[O-])c1 (stereo not shown) [Cilnidipine]
Average Severity of Weekly Symptomatic RP Attacks, Change from Baseline, Mean [1]: 0.28
Average Severity of Weekly Symptomatic RP Attacks, Change from Baseline, Median [1]: 0.28
Average Severity of Weekly Symptomatic RP Attacks, Mean [1]: 3.77
Average Severity of Weekly Symptomatic RP Attacks, Median [1]: 3.77
Average Severity of Weekly Symptomatic RP Attacks, Percent Change from Baseline, Mean [1]: 8.05%
Average Severity of Weekly Symptomatic RP Attacks, Percent Change from Baseline, Median [1]: 8.05%
Average Severity of Weekly Symptomatic RP Attacks, Change from Baseline, Mean [2]: 0.28
Average Severity of Weekly Symptomatic RP Attacks, Change from Baseline, Median [2]: 0.28
Average Severity of Weekly Symptomatic RP Attacks, Mean [2]: 3.77
Average Severity of Weekly Symptomatic RP Attacks, Median [2]: 3.77
Average Severity of Weekly Symptomatic RP Attacks, Percent Change from Baseline, Mean [2]: 8.05%
Average Severity of Weekly Symptomatic RP Attacks, Percent Change from Baseline, Median [2]: 8.05%
Average Severity of Weekly Symptomatic RP Attacks, Percent Change from Baseline, Mean (Cilnidipine 10 mg, ITT Part A): 8.05%
Average Severity of Weekly Symptomatic RP Attacks, Percent Change from Baseline, Median (Cilnidipine 10 mg, ITT Part A): 8.05%
Average Severity of Weekly RP Attacks (All Attacks), Change from Baseline, Mean [3]: 0.02
Average Severity of Weekly RP Attacks (All Attacks), Change from Baseline, Median [3]: 0.02
Average Severity of Weekly RP Attacks (All Attacks), Mean [3]: 3.05
Average Severity of Weekly RP Attacks (All Attacks), Median [3]: 3.05
Average Severity of Weekly RP Attacks (All Attacks), Percent Change from Baseline, Mean [3]: 0.55%
Average Severity of Weekly RP Attacks (All Attacks), Percent Change from Baseline, Median [3]: 0.55%
Average Severity (0-10) of weekly RP attacks, Median [4]: 3.05
Average severity of weekly RP attacks, Change from Baseline, Mean [4]: 0.02
Average severity of weekly RP attacks, Change from Baseline, Median [4]: 0.02
Average severity of weekly RP attacks, Percent Change from Baseline, Mean [4]: 0.55%
Average severity of weekly RP attacks, Percent Change from Baseline, Median [4]: 0.55%
Average Severity (0-10) of weekly RP attacks, Mean [5]: 3.05
Average Severity (0-10) of weekly RP attacks, Median [5]: 3.05
Average severity of weekly RP attacks, Change from Baseline, Mean [5]: 0.02
Average severity of weekly RP attacks, Change from Baseline, Median [5]: 0.02
Average severity of weekly RP attacks, Percent Change from Baseline, Mean [5]: 0.55%
Average severity of weekly RP attacks, Percent Change from Baseline, Median [5]: 0.55%
Average Severity (0-10) of weekly RP attacks, Mean [6]: 3.05
Average Severity (0-10) of weekly RP attacks, Median [6]: 3.05
Average severity of weekly RP attacks, Change from Baseline, Mean [6]: 0.02
Average severity of weekly RP attacks, Change from Baseline, Median [6]: 0.02
Average severity of weekly RP attacks, Percent Change from Baseline, Mean [6]: 0.55%
Average severity of weekly RP attacks, Percent Change from Baseline, Median [6]: 0.55%
Average Severity of Weekly Symptomatic RP Attacks, Percent Change from Baseline, Mean [7]: 8.05%
Average Severity of Weekly Symptomatic RP Attacks, Percent Change from Baseline, Median [7]: 8.05%
Average Severity of Weekly Symptomatic RP Attacks, Change from Baseline, Mean [8]: 0.28
Average Severity of Weekly Symptomatic RP Attacks, Change from Baseline, Median [8]: 0.28
Average Severity of Weekly Symptomatic RP Attacks, Mean [8]: 3.77
Average Severity of Weekly Symptomatic RP Attacks, Median [8]: 3.77
Average Severity of Weekly Symptomatic RP Attacks, Change from Baseline, Mean [9]: 0.28
Average Severity of Weekly Symptomatic RP Attacks, Change from Baseline, Median [9]: 0.28
Average Severity of Weekly Symptomatic RP Attacks, Mean [9]: 3.77
Average Severity of Weekly Symptomatic RP Attacks, Median [9]: 3.77
Severity (change) (Cilnidipine 20 mg (n = 3)): −36%
Average Severity of Weekly Symptomatic RP Attacks, Change from Baseline, Mean [10]: −1.44
Average Severity of Weekly Symptomatic RP Attacks, Change from Baseline, Median [10]: −1.44
Average Severity of Weekly Symptomatic RP Attacks, Mean [10]: 2.30
Average Severity of Weekly Symptomatic RP Attacks, Median [10]: 2.30
Average Severity of Weekly Symptomatic RP Attacks, Percent Change from Baseline, Mean [10]: −32.85%
Average Severity of Weekly Symptomatic RP Attacks, Percent Change from Baseline, Median [10]: −32.85%
Average Severity of Weekly Symptomatic RP Attacks, Change from Baseline, Mean [11]: −1.44
Average Severity of Weekly Symptomatic RP Attacks, Change from Baseline, Median [11]: −1.44
Average Severity of Weekly Symptomatic RP Attacks, Mean [11]: 2.30
Average Severity of Weekly Symptomatic RP Attacks, Median [11]: 2.30
Average Severity of Weekly Symptomatic RP Attacks, Percent Change from Baseline, Mean [11]: −32.85%
Average Severity of Weekly Symptomatic RP Attacks, Percent Change from Baseline, Median [11]: −32.85%
Average Severity of Weekly Symptomatic RP Attacks, Percent Change from Baseline, Mean (Cilnidipine 20 mg, ITT Part A): −32.85%
Average Severity of Weekly Symptomatic RP Attacks, Percent Change from Baseline, Median (Cilnidipine 20 mg, ITT Part A): −32.85%
Average Severity of Weekly RP Attacks (All Attacks), Change from Baseline, Mean [12]: −1.07
Average Severity of Weekly RP Attacks (All Attacks), Change from Baseline, Median [12]: −1.07
Average Severity of Weekly RP Attacks (All Attacks), Mean [12]: 2.30
Average Severity of Weekly RP Attacks (All Attacks), Median [12]: 2.30
Average Severity of Weekly RP Attacks (All Attacks), Percent Change from Baseline, Mean [12]: −27.26%
Average Severity of Weekly RP Attacks (All Attacks), Percent Change from Baseline, Median [12]: −27.26%
Average Severity (0-10) of weekly RP attacks, Mean [13]: 2.30
Average Severity (0-10) of weekly RP attacks, Median [13]: 2.30
Average severity of weekly RP attacks, Change from Baseline, Mean [13]: −1.07
Average severity of weekly RP attacks, Change from Baseline, Median [13]: −1.07
Average severity of weekly RP attacks, Percent Change from Baseline, Mean [13]: −27.26%
Average severity of weekly RP attacks, Percent Change from Baseline, Median [13]: −27.26%
Average Severity (0-10) of weekly RP attacks, Mean [14]: 2.30
Average Severity (0-10) of weekly RP attacks, Median [14]: 2.30
Average severity of weekly RP attacks, Change from Baseline, Mean [14]: −1.07
Average severity of weekly RP attacks, Change from Baseline, Median [14]: −1.07
Average severity of weekly RP attacks, Percent Change from Baseline, Mean [14]: −27.26%
Average severity of weekly RP attacks, Percent Change from Baseline, Median [14]: −27.26%
Average Severity (0-10) of weekly RP attacks, Mean [15]: 2.30
Average Severity (0-10) of weekly RP attacks, Median [15]: 2.30
Average severity of weekly RP attacks, Change from Baseline, Mean [15]: −1.07
Average severity of weekly RP attacks, Change from Baseline, Median [15]: −1.07
Average severity of weekly RP attacks, Percent Change from Baseline, Mean [15]: −27.26%
Average severity of weekly RP attacks, Percent Change from Baseline, Median [15]: −27.26%
Average Severity of Weekly Symptomatic RP Attacks, Percent Change from Baseline, Mean [16]: −32.85%
Average Severity of Weekly Symptomatic RP Attacks, Percent Change from Baseline, Median [16]: −32.85%
Average Severity of Weekly Symptomatic RP Attacks, Change from Baseline, Mean [17]: −1.44
Average Severity of Weekly Symptomatic RP Attacks, Change from Baseline, Median [17]: −1.44
Average Severity of Weekly Symptomatic RP Attacks, Mean [17]: 2.30
Average Severity of Weekly Symptomatic RP Attacks, Median [17]: 2.30
Average Severity of Weekly Symptomatic RP Attacks, Change from Baseline, Mean [18]: −1.44
Average Severity of Weekly Symptomatic RP Attacks, Change from Baseline, Median [18]: −1.44
Average Severity of Weekly Symptomatic RP Attacks, Mean [18]: 2.30
Average Severity of Weekly Symptomatic RP Attacks, Median [18]: 2.30
Average Severity of Weekly Symptomatic RP Attacks, Change from Baseline, Mean [19]: −1.22
Average Severity of Weekly Symptomatic RP Attacks, Change from Baseline, Median [19]: −1.22
Average Severity of Weekly Symptomatic RP Attacks, Mean [19]: 3.34
Average Severity of Weekly Symptomatic RP Attacks, Median [19]: 3.34
Average Severity of Weekly Symptomatic RP Attacks, Percent Change from Baseline, Mean [19]: −20.18%
Average Severity of Weekly Symptomatic RP Attacks, Percent Change from Baseline, Median [19]: −20.18%
Average Severity of Weekly Symptomatic RP Attacks, Change from Baseline, Mean [20]: −1.13
Average Severity of Weekly Symptomatic RP Attacks, Change from Baseline, Median [20]: −1.13
Average Severity of Weekly Symptomatic RP Attacks, Mean [20]: 5.23
Average Severity of Weekly Symptomatic RP Attacks, Median [20]: 5.23
Average Severity of Weekly Symptomatic RP Attacks, Percent Change from Baseline, Mean [20]: −17.81%
Average Severity of Weekly Symptomatic RP Attacks, Percent Change from Baseline, Median [20]: −17.81%
Average Severity of Weekly Symptomatic RP Attacks, Change from Baseline, Mean (Pooled Cilnidipine 10 mg and Cilnidipine 10 mg + Tadalafil 5 mg, Excluding Outliers, 1st Baseline RCS subgroup, ITT Part A, last 7 days of dosing period): −1.22
